Laboratory results taken from patent US9351974B2, “Substituted pteridinones for the treatment of cancer” (OSI Pharmaceuticals, LLC, priority 2011, dated 2016).

Target: T1, His-tagged full-length RSK2 (RPS6KA3) (Homo sapiens, UniProt P51812)
T1 construct: His-tagged full-length RSK2 (RPS6KA3, Invitrogen PV3323); His; purchased Invitrogen PV3323
Assay: RSK2 Omnia Assay for compound IC50 determination
Assay type: biochemical
Settings: ATP 15 μM, n=2, read-out: Mean RSK2 Biochem IC50
Procedure, shortened: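 Initial-rate slopes from continuous kinetic reads were fitted to a four-parameter equation for IC50 (n=2). Ki was then derived by Cheng-Prusoff assuming ATP-competitive inhibition. Reactions contained 15 μM ATP (Km 16.3 μM), 5 μM Omnia ST Peptide 6, and […] in 50 mM HEPES pH 7.5, 10 mM MgCl2, 1 mM DTT, 1% DMSO. Compounds spanned 11 threefold steps, […] final.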

T1 sequence (P51812 whole entry): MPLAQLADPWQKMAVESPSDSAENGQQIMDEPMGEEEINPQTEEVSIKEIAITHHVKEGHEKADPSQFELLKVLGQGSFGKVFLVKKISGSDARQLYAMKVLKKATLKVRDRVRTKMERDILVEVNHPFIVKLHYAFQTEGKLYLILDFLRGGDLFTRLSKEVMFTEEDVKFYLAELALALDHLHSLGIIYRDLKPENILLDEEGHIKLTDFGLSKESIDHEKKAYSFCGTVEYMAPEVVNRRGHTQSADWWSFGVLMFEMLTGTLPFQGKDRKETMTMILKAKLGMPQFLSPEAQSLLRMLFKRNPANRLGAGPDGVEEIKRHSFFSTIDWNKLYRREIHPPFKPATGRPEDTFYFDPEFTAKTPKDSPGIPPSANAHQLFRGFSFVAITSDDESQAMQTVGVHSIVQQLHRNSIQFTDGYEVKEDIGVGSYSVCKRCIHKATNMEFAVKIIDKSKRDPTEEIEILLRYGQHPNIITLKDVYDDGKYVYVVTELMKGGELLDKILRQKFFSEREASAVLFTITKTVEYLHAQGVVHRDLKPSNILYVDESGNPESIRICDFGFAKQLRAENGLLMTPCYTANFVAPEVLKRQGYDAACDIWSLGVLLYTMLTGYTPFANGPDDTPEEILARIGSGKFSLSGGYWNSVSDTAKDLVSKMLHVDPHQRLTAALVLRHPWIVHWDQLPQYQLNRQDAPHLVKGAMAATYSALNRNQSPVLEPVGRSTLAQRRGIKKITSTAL

SMILES | IC50
COc1ccc(N2C(=O)[C@@H](C)N(C3CCC(F)(F)CC3)c3nc(Nc4cc(F)c5[nH]c(=O)oc5c4)ncc32)cc1C#N [compound 281, 5-[(7R)-8-(4,4-difluorocyclohexyl)-2-[(4-fluoro-2-oxo-2,3-dihydro-1,3-benzoxazol-6-yl)amino]-7-methyl-6-oxo-7,8-dihydropteridin-5(6H)-yl]-2-methoxybenzonitrile] | ≤ 100 nM
CC(C)Oc1ccc(N2C(=O)[C@@H](C)N(C3CCC(F)(F)CC3)c3nc(Nc4cnc5[nH]ncc5c4)ncc32)cc1C#N [compound 286, 5-[(7R)-8-(4,4-difluorocyclohexyl)-7-methyl-6-oxo-2-(1H-pyrazolo[3,4-b]pyridin-5-ylamino)-7,8-dihydropteridin-5(6H)-yl]-2-(propan-2-yloxy)benzonitrile] | 100 to 1000 nM
CC(C)CCN1c2nc(Nc3ccc(CS(=O)(=O)N(C)C)cc3)ncc2N(c2ccccc2)C(=O)C1C (stereo not shown) [Example 8, N,N-dimethyl-1-(4-{[7-methyl-8-(3-methylbutyl)-6-oxo-5-phenyl-5,6,7,8-tetrahydropteridin-2-yl]amino}phenyl)methanesulfonamide] | > 1000 nM
C[C@@H]1C(=O)N(c2cccnc2)c2cnc(Nc3ccc4[nH]ncc4c3F)nc2N1C1CCCCC1 [compound 122, (7R)-8-cyclohexyl-2-[(4-fluoro-1H-indazol-5-yl)amino]-7-methyl-5-(pyridin-3-yl)-7,8-dihydropteridin-6(5H)-one] | ≤ 100 nM
CC(C)CCN1c2nc(Nc3ccc4[nH]ncc4c3)ncc2N(c2ccccc2)C(=O)[C@@H]1C [Example 17, (7S)-2-(1H-indazol-5-ylamino)-7-methyl-8-(3-methylbutyl)-5-phenyl-7,8-dihydropteridin-6(5H)-one] | ≤ 100 nM
C[C@@H]1C(=O)N(c2cccc(C#N)c2)c2cnc(Nc3cc(F)c4[nH]nc(F)c4c3F)nc2N1C1CCCCC1 [compound 146, 3-[(7R)-8-cyclohexyl-7-methyl-6-oxo-2-[(3,4,7-trifluoro-1H-indazol-5-yl)amino]-7,8-dihydropteridin-5(6H)-yl]benzonitrile] | ≤ 100 nM
CC[C@@H]1C(=O)N(c2cccc(C(F)(F)F)c2)c2cnc(Nc3cc(F)c4[nH]ncc4c3)nc2N1C1CCCCC1 [compound 291, (7R)-8-cyclohexyl-7-ethyl-2-[(7-fluoro-1H-indazol-5-yl)amino]-5-[3-(trifluoromethyl)phenyl]-7,8-dihydropteridin-6(5H)-one] | ≤ 100 nM
CC(C)CCN1c2cc(Nc3ccc4[nH]ncc4c3)ncc2N(c2ccccc2)C(=O)C1C (stereo not shown) [Example 310, 7-(1H-indazol-5-ylamino)-2-methyl-1-(3-methylbutyl)-4-phenyl-1,4-dihydropyrido[3,4-b]pyrazin-3(2H)-one] | 100 to 1000 nM
C[C@@H]1C(=O)N(c2cccc(C#N)c2)c2cnc(Nc3ccc(C(N)=O)c(F)c3)nc2N1C1CCC(F)(F)CC1 [compound 272, 4-{[(7R)-5-(3-cyanophenyl)-8-(4,4-difluorocyclohexyl)-7-methyl-6-oxo-5,6,7,8-tetrahydropteridin-2-yl]amino}-2-fluorobenzamide] | ≤ 100 nM
Cc1c(Nc2ncc3c(n2)N(C2CCCCC2)[C@H](C)C(=O)N3c2cccc(C#N)c2)ccc2[nH]ncc12 [compound 117, 3-[(7R)-8-cyclohexyl-7-methyl-2-[(4-methyl-1H-indazol-5-yl)amino]-6-oxo-7,8-dihydropteridin-5(6H)-yl]benzonitrile] | 100 to 1000 nM
CCOc1ccc(N2C(=O)[C@@H](C)N(CCC(C)C)c3nc(Nc4cc(F)c5[nH]ncc5c4)ncc32)cc1C#N [Example 92, 2-ethoxy-5-[(7R)-2-[(7-fluoro-1H-indazol-5-yl)amino]-7-methyl-8-(3-methylbutyl)-6-oxo-7,8-dihydropteridin-5(6H)-yl]benzonitrile] | ≤ 100 nM
COc1ccc(N2C(=O)[C@@H](C)N(C3CCCCC3)c3nc(NCc4ccncc4)ncc32)cc1OC [compound 162] | > 1000 nM
C[C@@H]1C(=O)N(c2cccc(C#N)c2)c2cnc(Nc3ccc4[nH]ncc4c3F)nc2N1C1CCCCC1 [compound 100, 3-[(7R)-8-cyclohexyl-2-[(4-fluoro-1H-indazol-5-yl)amino]-7-methyl-6-oxo-7,8-dihydropteridin-5(6H)-yl]benzonitrile] | ≤ 100 nM
CO[C@H]1CC[C@@H](N2c3nc(Nc4cc(F)c5[nH]ncc5c4)ncc3N(c3cccnc3)C(=O)[C@H]2C)CC1 [compound 227, (7R)-2-[(7-fluoro-1H-indazol-5-yl)amino]-8-(cis-4-methoxycyclohexyl)-7-methyl-5-(pyridin-3-yl)-7,8-dihydropteridin-6(5H)-one] | ≤ 100 nM
C[C@@H]1C(=O)N(c2cncc(C#N)c2)c2cnc(Nc3ccc4[nH]ncc4c3)nc2N1C1CCCCC1 [compound 128, 5-[(7R)-8-cyclohexyl-2-(1H-indazol-5-ylamino)-7-methyl-6-oxo-7,8-dihydropteridin-5(6H)-yl]pyridine-3-carbonitrile] | ≤ 100 nM
CC1C(=O)N(c2ccccc2)c2cnc(Nc3ccc4[nH]ncc4c3)nc2N1C1CCCCC1 (stereo not shown) [Example 61, 8-cyclohexyl-2-(1H-indazol-5-ylamino)-7-methyl-5-phenyl-7,8-dihydropteridin-6(5H)-one] | ≤ 100 nM
CCOc1ccc(N2C(=O)[C@@H](C)N(C3CCC(F)(F)CC3)c3nc(Nc4cnc5[nH]ncc5c4)ncc32)cc1C#N [compound 282, 5-[(7R)-8-(4,4-difluorocyclohexyl)-7-methyl-6-oxo-2-(1H-pyrazolo[3,4-b]pyridin-5-ylamino)-7,8-dihydropteridin-5(6H)-yl]-2-ethoxybenzonitrile] | ≤ 100 nM
C[C@@H]1C(=O)N(c2cccc(C#N)c2)c2cnc(Nc3cc(F)c4[nH]ncc4c3)nc2N1c1cccc(F)c1 [compound 183, 3-[(7R)-2-[(7-fluoro-1H-indazol-5-yl)amino]-8-(3-fluorophenyl)-7-methyl-6-oxo-7,8-dihydropteridin-5(6H)-yl]benzonitrile] | ≤ 100 nM
C[C@@H]1C(=O)N(c2cccc(C#N)c2)c2cnc(Nc3ccc4c(c3)CNC4=O)nc2N1C1CCCCC1 [compound 161] | ≤ 100 nM
C[C@@H]1C(=O)N(c2cccc(C#N)c2)c2cnc(Nc3ccc(O)cn3)nc2N1C1CCCCC1 [compound 168, 3-[(7R)-8-cyclohexyl-2-[(5-hydroxypyridin-2-yl)amino]-7-methyl-6-oxo-7,8-dihydropteridin-5(6H)-yl]benzonitrile] | 100 to 1000 nM
COc1ccc(N2C(=O)[C@@H](C)N([C@H]3CC[C@@H](C)CC3)c3nc(Nc4cc(F)c5[nH]ncc5c4)ncc32)cc1OC [compound 238, (7R)-5-(3,4-dimethoxyphenyl)-2-[(7-fluoro-1H-indazol-5-yl)amino]-7-methyl-8-(cis-4-methylcyclohexyl)-7,8-dihydropteridin-6(5H)-one] | ≤ 100 nM

Now from value to molecule:

IC50 | SMILES
≤ 100 nM | C[C@@H]1C(=O)N(c2cccc(F)c2)c2cnc(Nc3cc(F)c4[nH]ncc4c3)nc2N1C1CCC(C)(C)CC1 [Example 211, (7R)-8-(4,4-dimethylcyclohexyl)-2-[(7-fluoro-1H-indazol-5-yl)amino]-5-(3-fluorophenyl)-7-methyl-7,8-dihydropteridin-6(5H)-one]
> 1000 nM | CC(C)CCN1c2nc(N[C@H]3CC[C@H](O)CC3)ncc2N(c2ccccc2)C(=O)C1C (relative stereo) [Example 11, 2-[(trans-4-hydroxycyclohexyl)amino]-7-methyl-8-(3-methylbutyl)-5-phenyl-7,8-dihydropteridin-6(5H)-one]
≤ 100 nM | CC(C)CCN1c2nc(Nc3ccc4c(c3)CC(=O)N4)ncc2N(c2ccccc2)C(=O)C1C (stereo not shown) [Example 3, 7-methyl-8-(3-methylbutyl)-2-[(2-oxo-2,3-dihydro-1H-indol-5-yl)amino]-5-phenyl-7,8-dihydropteridin-6(5H)-one]
≤ 100 nM | COc1ccc(N2C(=O)[C@@H](C)N(C3CCOCC3)c3nc(Nc4cc(F)c5[nH]ncc5c4)ncc32)cn1 [compound 192, (7R)-2-[(7-fluoro-1H-indazol-5-yl)amino]-5-(6-methoxypyridin-3-yl)-7-methyl-8-(tetrahydro-2H-pyran-4-yl)-7,8-dihydropteridin-6(5H)-one]
≤ 100 nM | C[C@@H]1C(=O)N(c2cccc(C(=O)N(C)C)c2)c2cnc(Nc3ccc4[nH]ncc4c3)nc2N1C1CCCCC1 [Example 32, 3-[(7R)-8-cyclohexyl-2-(1H-indazol-5-ylamino)-7-methyl-6-oxo-7,8-dihydropteridin-5(6H)-yl]-N,N-dimethylbenzamide]
≤ 100 nM | C[C@@H]1C(=O)N(c2cccc(Cl)c2)c2cnc(Nc3ccc4[nH]ncc4c3)nc2N1C1CCCCC1 [Example 31, (7R)-5-(3-chlorophenyl)-8-cyclohexyl-2-(1H-indazol-5-ylamino)-7-methyl-7,8-dihydropteridin-6(5H)-one]
≤ 100 nM | C[C@@H]1C(=O)N(c2cccc(C#N)c2)c2cnc(Nc3cc(F)c4[nH]nc(F)c4c3)nc2N1C1CCCCC1 [compound 131, 3-[(7R)-8-cyclohexyl-2-[(3,7-difluoro-1H-indazol-5-yl)amino]-7-methyl-6-oxo-7,8-dihydropteridin-5(6H)-yl]benzonitrile]
≤ 100 nM | C[C@@H]1C(=O)N(c2cccc(C#N)c2)c2cnc(Nc3ccc4[nH]ncc4c3F)nc2N1C1CCCC1 [Example 216, 3-[(7R)-8-cyclopentyl-2-[(4-fluoro-1H-indazol-5-yl)amino]-7-methyl-6-oxo-7,8-dihydropteridin-5(6H)-yl]benzonitrile]
≤ 100 nM | CCOc1ccc(N2C(=O)[C@@H](C)N(C3CCOCC3)c3nc(Nc4cc(F)c5[nH]ncc5c4)ncc32)cc1C#N [compound 195, 2-Ethoxy-5-[(7R)-2-[(7-fluoro-1H-indazol-5-yl)amino]-7-methyl-6-oxo-8-(tetrahydro-2H-pyran-4-yl)-7,8-dihydropteridin-5(6H)-yl]benzonitrile]
> 1000 nM | C[C@@H]1C(=O)N(c2cccc(C#N)c2)c2cnc(Nc3ccc(N)c(C(F)(F)F)c3)nc2N1C1CCC(F)(F)CC1 [compound 275]
